From ChEMBL document CHEMBL4339186, “Repurposing nitrocatechols: 5-Nitro-α-cyanocarboxamide derivatives of caffeic acid and caffeic acid phenethyl ester effectively inhibit aggregation of tau-derived hexapeptide AcPHF6” (Eur J Med Chem, 2019) come the findings set out here.

The source made the active and inactive calls. The rule behind the calls is not given here.

The nature of assay [1]: Inhibition of synthetic AcPHF6 peptide aggregation in pH 7.4 phosphate buffer assessed as reduction in fluorescence intensity at 50 uM and measured every minute over 2 hrs with 5 secs shaking prior to each reading by ThT fluorescence assay.
Assay [2] is described as follows: Metal chelating activity assessed as Fe2+-compound complex formation at 40 uM after 30 mins by UV-Visible spectrophotometric method.
Assay [3] is described as follows: Metal chelating activity assessed as Cu2+-compound complex formation at 40 uM after 30 mins by UV-Visible spectrophotometric method.
A short description of assay [4]: Metal chelating activity assessed as Cu2+-compound complex formation at 40 uM incubated with 0-100 uM copper(II) sulfate after 30 mins by UV-Visible spectrophotometric method.

The inhibition is the change of the read-out against control, counted positive when it falls. `O=C(/C=C/c1ccc(O)c(O)c1)NCCc1ccccc1`: in assay [1], the inhibition entry is “inactive”.

As for `O=C(O)/C=C/c1cc(O)c(O)c([N+](=O)[O-])c1`, the inhibition in assay [1] was found to be 45%.

Regarding `CCOC(=O)C(=Cc1cc(O)c(O)c([N+](=O)[O-])c1)C(=O)OCC`, the inhibition in assay [1] was found to be 41%.

Take `CCOC(=O)C(=Cc1ccc(O)cc1)C(=O)OCC`: the inhibition entry in assay [1] is “inactive”.

For `O=C(O)c1cc(O)c(O)c(O)c1`, the inhibition entry in assay [1] is “inactive”.

Turning to `O=C(/C=C/c1cc(O)c(O)c([N+](=O)[O-])c1)OCc1ccccc1`, in assay [2], the result was inactive. The inhibition in assay [1] is 44.5%. Also, the result in assay [3] was Active.

In the case of `O=C(/C=C/c1ccc(O)c(O)c1)OCCc1ccccc1`, in assay [1], the inhibition turned out to be 17%.

As to `CCOC(=O)/C=C/c1ccc(O)c(O)c1`, in assay [1], the inhibition result was “inactive”.

As for `N#C/C(=C\c1cc(O)c(O)c([N+](=O)[O-])c1)C(=O)NCc1ccccc1`, the result in assay [2] was inactive. Further, the inhibition in assay [1] worked out at 90.5%. Besides, the result in assay [3] was Active.

`O=C(O)/C=C/c1cc(O)c(O)c(Br)c1`: in assay [1], the inhibition came to 18%.

As to `CCOC(=O)/C=C/c1cc(O)c(O)c(O)c1`, the inhibition in assay [1] turned out to be 21%.

As to `CCOC(=O)/C=C/c1ccc(O)cc1`, the inhibition entry in assay [1] is “inactive”.

Turning to `O=C(O)C(=Cc1cc(O)c(O)c([N+](=O)[O-])c1)C(=O)O`, the inhibition entry in assay [1] is “inactive”.

Turning to `CCN(CC)C(=O)/C(C#N)=C/c1cc(O)c(O)c([N+](=O)[O-])c1`, in assay [1], the inhibition is 60.3%.

With `O=C(O)c1ccc(O)c(O)c1`, the inhibition result in assay [1] is “inactive”.

On to `N#C/C(=C\c1cc(O)c(O)c([N+](=O)[O-])c1)C(=O)OCCc1ccccc1`, for which the outcome in assay [2] was inactive. In assay [1], the inhibition was 74.4%. The outcome in assay [3] was Active.

`O=C(/C=C/c1cc(O)c(O)c([N+](=O)[O-])c1)OCCc1ccccc1`: in assay [2], the result was inactive. For the same compound, the inhibition in assay [1] came to 55.2%. Moreover, the result in assay [3] was Active.

Take `O=C(O)/C=C/c1cc(O)c(O)c(O)c1`: the inhibition result in assay [1] is “inactive”.

For the compound `CCOC(=O)/C=C/c1cc(O)c(O)c([N+](=O)[O-])c1`, in assay [1], the inhibition was determined as 44%.

`O=S(=O)(O)c1cc(S(=O)(=O)O)c2c(/N=N/c3ccccc3)c(O)ccc2c1`: the inhibition in assay [1] turned out to be 54%.

For `O=C(O)/C=C/c1ccc(O)cc1`, in assay [1], the inhibition result was “inactive”.

As to `O=C(O)/C=C/c1ccc(O)c(O)c1`, the inhibition entry in assay [1] was “inactive”.

For `CCOC(=O)C(=Cc1cc(O)c(O)c(O)c1)C(=O)OCC`, the inhibition result in assay [1] is “inactive”.

`Cc1ccc(C(=O)c2cc(O)c(O)c([N+](=O)[O-])c2)cc1`: the inhibition in assay [1] is 64.6%.

Consider `CCOC(=O)C(=Cc1ccc(O)c(O)c1)C(=O)OCC`, for which, in assay [1], the inhibition result is “inactive”.

With `O=C(/C=C/c1ccc(O)c(O)c1)OCc1ccccc1`, the inhibition in assay [1] is 13%.

As to `N#C/C(=C\c1cc(O)c(O)c([N+](=O)[O-])c1)C(=O)NCCc1ccccc1`, in assay [2], the result was inactive. The inhibition in assay [1] worked out at 89.2%. For the same compound, the outcome in assay [4] and in assay [3] was Active.

With `N#C/C(=C\c1cc(O)c(O)c([N+](=O)[O-])c1)C(=O)OCc1ccccc1`, the outcome in assay [2] was inactive. In addition, in assay [1], the inhibition stood at 71.2%. The result in assay [3] was Active.
